Type in all cases: functional
The nature of assay [1]: SAR analysis of small molecule activators of Apaf-1 using a LZ-Caspase-9/Caspase-3 Fluorescent Selectivity assay - Set 2. To be noted: read-out: EC50_Mean.
The target of assay [2] is T1, Apoptotic protease-activating factor 1 (Homo sapiens, UniProt O14727).
T1 sequence (O14727 whole entry): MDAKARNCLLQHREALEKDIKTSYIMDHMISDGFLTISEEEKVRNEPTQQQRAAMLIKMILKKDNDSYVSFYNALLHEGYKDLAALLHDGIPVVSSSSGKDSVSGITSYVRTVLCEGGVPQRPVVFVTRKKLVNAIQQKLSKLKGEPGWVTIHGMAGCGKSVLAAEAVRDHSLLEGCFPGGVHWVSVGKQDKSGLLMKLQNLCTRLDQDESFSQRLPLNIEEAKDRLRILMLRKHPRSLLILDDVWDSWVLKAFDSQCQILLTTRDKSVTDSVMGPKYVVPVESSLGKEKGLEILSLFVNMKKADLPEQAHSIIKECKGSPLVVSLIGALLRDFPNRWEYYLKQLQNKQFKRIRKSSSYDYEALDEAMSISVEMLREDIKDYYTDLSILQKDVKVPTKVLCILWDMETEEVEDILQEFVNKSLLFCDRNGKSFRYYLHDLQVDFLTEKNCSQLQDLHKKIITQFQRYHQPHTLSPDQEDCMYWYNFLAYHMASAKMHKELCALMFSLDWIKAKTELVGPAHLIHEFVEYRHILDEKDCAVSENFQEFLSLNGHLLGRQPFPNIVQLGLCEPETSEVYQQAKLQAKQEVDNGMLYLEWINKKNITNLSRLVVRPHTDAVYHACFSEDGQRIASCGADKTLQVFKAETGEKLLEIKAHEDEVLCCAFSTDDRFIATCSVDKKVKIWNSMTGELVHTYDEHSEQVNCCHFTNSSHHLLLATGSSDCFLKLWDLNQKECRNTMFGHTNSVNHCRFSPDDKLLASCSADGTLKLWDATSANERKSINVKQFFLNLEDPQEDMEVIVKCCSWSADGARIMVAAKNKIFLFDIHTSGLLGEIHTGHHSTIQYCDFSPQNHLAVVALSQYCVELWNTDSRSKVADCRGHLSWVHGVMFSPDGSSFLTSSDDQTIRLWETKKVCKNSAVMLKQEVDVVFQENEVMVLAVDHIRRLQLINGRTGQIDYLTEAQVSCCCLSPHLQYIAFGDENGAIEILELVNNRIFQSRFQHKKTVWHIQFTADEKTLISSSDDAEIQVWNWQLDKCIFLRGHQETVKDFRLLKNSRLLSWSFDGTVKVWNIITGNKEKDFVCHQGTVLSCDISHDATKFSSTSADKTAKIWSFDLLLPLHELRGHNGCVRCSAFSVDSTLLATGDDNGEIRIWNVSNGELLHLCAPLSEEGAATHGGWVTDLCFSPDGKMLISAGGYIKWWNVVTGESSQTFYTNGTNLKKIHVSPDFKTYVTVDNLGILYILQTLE
Kind of assay: SAR analysis of small molecule Activators of Apaf-1 in a Fluorescent assay - set 2. The conditions noted are these: read-out: EC50_Mean.

For assay [3], the target named is Melanin-concentrating hormone receptor 1 (Homo sapiens, UniProt Q99705). As to the kind of experiment: Late-stage fluorescence-based counterscreen for antagonists of the G-protein coupled receptor 7 (GPR7): cell-based dose response assay to identify antagonists of the melanin-concentrating hormone receptor 1 (MCHR1) Set 6. For orientation: A counterscreen serves to expose hits that act by an unwanted route or on another target.

For assay [4], the target named is T2, Neuropeptides B/W receptor type 1 (Homo sapiens, UniProt P48145).
T2 sequence (P48145 whole entry): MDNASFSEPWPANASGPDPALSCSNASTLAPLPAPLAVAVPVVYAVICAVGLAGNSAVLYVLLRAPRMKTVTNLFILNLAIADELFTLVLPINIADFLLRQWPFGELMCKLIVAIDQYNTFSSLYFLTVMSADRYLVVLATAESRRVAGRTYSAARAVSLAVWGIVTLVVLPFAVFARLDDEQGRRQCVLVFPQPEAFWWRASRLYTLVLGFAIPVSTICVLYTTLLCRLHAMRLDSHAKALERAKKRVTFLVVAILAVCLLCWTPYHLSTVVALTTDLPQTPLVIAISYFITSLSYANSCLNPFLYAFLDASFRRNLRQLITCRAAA
Kind of assay: GPR7 antagonist potency, late-stage follow-up, cell-based, fluorescence, dose response, set 6 (AID 588583).

Activity calls are given as the source filed them.

As a reminder, the IC50 is the concentration that gives 50% inhibition.

Sequence of Melanin-concentrating hormone receptor 1 (Q99705 whole entry): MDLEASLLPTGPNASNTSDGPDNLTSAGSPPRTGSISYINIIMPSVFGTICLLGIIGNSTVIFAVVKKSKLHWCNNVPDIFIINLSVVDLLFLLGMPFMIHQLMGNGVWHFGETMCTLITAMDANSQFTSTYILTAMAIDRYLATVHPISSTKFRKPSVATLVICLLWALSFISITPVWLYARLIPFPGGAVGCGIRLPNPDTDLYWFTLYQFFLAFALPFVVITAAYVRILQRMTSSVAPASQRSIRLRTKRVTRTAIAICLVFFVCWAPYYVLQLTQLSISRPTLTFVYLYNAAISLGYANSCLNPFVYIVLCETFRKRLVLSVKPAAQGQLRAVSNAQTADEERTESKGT

Regarding `O=C(O)C1(Cn2cccn2)CC1`, the EC50 in assay [1] and in assay [2] was > 100 µM (inactive) throughout.

In the case of `NC(=O)C(c1ccccc1)c1c(Cl)cnn(Cc2cccc3ccccc23)c1=O` (centres undefined), the IC50 in assay [3] and in assay [4] was > 20 µM (inactive) throughout.

The values above are taken from ChEMBL document CHEMBL1201862, “PubChem BioAssay data set” (2004).
